From patent US9751854B2 (Millennium Pharmaceuticals, Inc., priority 2014, dated 2017)
pIC50: −log10 of the molar value.

What follows are compounds tested against human VPS34 (Homo sapiens (Human), UniProt Q8NEB9) (assay: Human VPS34 enzyme assay (Adapta TR-FRET ADP detection)). Conditions: not given.
Type: biochemical
Set-up: Percent Inhibition: dose or concentration left out as unconfirmed

Sequence of human VPS34 (Q8NEB9 whole entry): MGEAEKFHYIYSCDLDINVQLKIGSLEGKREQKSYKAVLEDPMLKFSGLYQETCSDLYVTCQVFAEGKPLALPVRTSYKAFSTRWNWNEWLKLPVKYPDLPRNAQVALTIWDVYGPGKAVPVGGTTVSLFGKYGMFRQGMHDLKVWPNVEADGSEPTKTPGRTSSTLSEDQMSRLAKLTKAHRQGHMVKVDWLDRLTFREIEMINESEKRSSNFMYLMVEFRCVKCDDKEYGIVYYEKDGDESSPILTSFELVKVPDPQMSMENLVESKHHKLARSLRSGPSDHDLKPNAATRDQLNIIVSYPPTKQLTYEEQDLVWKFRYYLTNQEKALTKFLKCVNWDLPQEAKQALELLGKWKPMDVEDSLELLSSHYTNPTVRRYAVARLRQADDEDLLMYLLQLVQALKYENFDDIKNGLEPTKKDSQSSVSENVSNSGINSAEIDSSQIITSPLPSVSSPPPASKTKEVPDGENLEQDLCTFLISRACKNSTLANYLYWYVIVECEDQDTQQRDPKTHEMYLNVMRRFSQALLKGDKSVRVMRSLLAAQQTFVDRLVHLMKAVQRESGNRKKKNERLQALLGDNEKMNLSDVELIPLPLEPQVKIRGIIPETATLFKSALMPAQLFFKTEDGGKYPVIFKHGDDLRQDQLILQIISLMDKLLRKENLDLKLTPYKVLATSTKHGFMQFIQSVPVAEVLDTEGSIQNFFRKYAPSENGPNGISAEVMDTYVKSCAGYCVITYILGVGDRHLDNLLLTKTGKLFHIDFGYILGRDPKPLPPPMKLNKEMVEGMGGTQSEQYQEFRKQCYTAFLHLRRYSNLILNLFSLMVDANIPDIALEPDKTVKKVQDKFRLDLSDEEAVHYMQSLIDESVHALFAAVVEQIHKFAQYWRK

SMILES | pIC50 | Percent Inhibition [%]
CC(=O)Nc1cc(-c2cnc(N)c(S(=O)(=O)CC3CC3)c2)ccn1 [Compound I-208] | 7.30 to 8.00 | >99
Cc1nccc(Nc2cc(-c3cnc(N)c(C(=O)N(C)C45CC(C4)C5)c3)ccn2)n1 [Compound I-277, 6-amino-N-(bicyclo[1.1.1]pent-1-yl)-N-methyl-2′-[(2-methylpyrimidin-4-yl)amino]-3,4′-bipyridine-5-carboxamide] |  | 100
CC(=O)Nc1cc(-c2cnc(C)c(NS(=O)(=O)c3nccn3C)c2)ccn1 [Compound I-92] |  | >99
CC(=O)Nc1cc(-c2cnc(Cl)c(NS(=O)(=O)N(C)C)c2)ccn1 [Compound I-372, N-{6-chloro-5-[(dimethylsulfamoyl)amino]-3,4′-bipyridin-2′-yl}acetamide] |  | >99

Same assay, conditions: IC50 range class

SMILES | pIC50
CC(=O)Nc1cc(-c2cnc(N(C)C)c(S(=O)(=O)NC(C)(C)C)c2C)ccn1 [Compound I-487, N-[5-(tert-butylsulfamoyl)-6-(dimethylamino)-4-methyl-3,4′-bipyridin-2′-yl]acetamide] | < 7.00
CC(=O)Nc1cc(-c2cncc(C(=O)/C=C/c3ccc(F)cc3)c2)ccn1 [Compound I-198, N-[5-[(2E)-3-(4-fluorophenyl)prop-2-enoyl]-3,4′-bipyridin-2′-yl}acetamide] | < 7.00
CC(=O)Nc1cc(-c2cnc(C)c(NS(=O)(=O)c3ccc(C)cc3F)c2)c(C)cn1 [Compound I-130, N-(5-{[(2-fluoro-4-methylphenyl)sulfonyl]amino}-5′,6-dimethyl-3,4′-bipyridin-2′-yl)acetamide] | 7.00 to 7.30
Cc1nccc(Nc2cc(-c3cc(N)c4ccnn4c3)ccn2)n1 [Compound I-480, 6-{2-[(2-methylpyrimidin-4-yl)amino]pyridin-4-yl}pyrazolo[1.5-a]pyridin-4-amine] | 7.00 to 7.30
Cc1nccc(Nc2cc(-c3cnc(N)c(C(=O)N(C)C45CC(C4)C5)c3)ccn2)n1 [Compound I-277, 6-amino-N-(bicyclo[1.1.1]pent-1-yl)-N-methyl-2′-[(2-methylpyrimidin-4-yl)amino]-3,4′-bipyridine-5-carboxamide] | > 8.00
CCCCS(=O)(=O)Nc1cc(-c2ccnc(NC(C)=O)c2)cnc1C [Compound I-373, N-{5-[(butylsulfonyl)amino]-6-methyl-3,4′-bipyridin-2′-yl}acetamide] | 7.30 to 8.00
CC(=O)Nc1cc(-c2cnc(N(C)C)c(C(=O)NC34CC(C3)C4)c2)ccn1 [Compound I-283, 2′-Acetamido-N-(bicyclo[1.1.1]pent-1-yl)-6-(dimethylamino)-3,4′-bipyridine-5-carboxamide] | 7.30 to 8.00
CC(=O)Nc1cc(-c2cnc(N)c(S(=O)(=O)Nc3ccc4ccccc4c3)c2)ccn1 [Compound I-98, N-[6-amino-5-(2-naphthylsulfamoyl)-3,4′-bipyridin-2′-yl]acetamide] | 7.30 to 8.00
CC(=O)Nc1cc(-c2cnc(N)c(S(=O)(=O)NCC3CC3)c2C)ccn1 [Compound I-49, N-{6-amino-5-[(cyclopropylmethyl)sulfamoyl]-4-methyl-3,4′-bipyridin-2′-yl}acetamide] | 7.00 to 7.30
CC(=O)Nc1cc(-c2cnc(N)c(C(=O)Nc3cccc(F)c3)c2)ccn1 [Compound I-82, 2′-acetamido-6-amino-N-(3-fluorophenyl)-3,4′-bipyridine-5-carboxamide] | 7.30 to 8.00
COc1ncc(-c2ccnc(NC(C)=O)c2)cc1N(C)C(=O)c1ccc(F)cc1F [Compound I-331, N-(2′-acetamido-6-methoxy-3,4′-bipyridin-5-yl)-2,4-difluoro-N-methylbenzamide] | < 7.00

Other lines, results leading:

pIC50 | SMILES
7.30 to 8.00 | CC(=O)Nc1cc(-c2cncc(S(=O)(=O)N(C)c3ccccc3)c2)ccn1 [Compound I-365, N-{5-[methyl(phenyl)sulfamoyl]-3,4′-bipyridin-2′-yl}acetamide]
7.30 to 8.00 | CC(=O)Nc1cc(-c2cnc(N)c(NCC3CC3)c2)ccn1 [Compound I-35, N-{6-amino-5-[(cyclopropylmethyl)amino]-3,4′-bipyridin-2′-yl}acetamide]
7.30 to 8.00 | CC(=O)Nc1cc(-c2cnc(C)c(S(=O)(=O)NC34CC(C3)C4)c2)ccn1 [Compound I-418, N-[5-(bicyclo[1.1.1]pent-1-ylsulfamoyl)-6-methyl-3,4′-bipyridin-2′-yl]acetamide]
7.30 to 8.00 | CC(=O)Nc1cc(-c2cncc(N3CCOc4cc(F)ccc4S3(=O)=O)c2)ccn1 [Compound I-405]
> 8.00 | CN(C)S(=O)(=O)c1cc(-c2ccnc(Nc3ncco3)c2)cnc1N [Compound I-166, 6-amino-N,N-dimethyl-2′-(1,3-oxazol-2-ylamino)-3,4′-bipyridine-5-sulfonamide]
7.30 to 8.00 | CC(=O)Nc1cc(-c2cncc(S(=O)(=O)N(C)C)c2)ccn1 [Compound I-137, N-[5-(dimethylsulfamoyl)-3,4′-bipyridin-2′-yl]acetamide]
7.30 to 8.00 | CC(=O)Nc1cc(-c2cnc(N)c(S(N)(=O)=O)c2)ccn1 [Compound I-61, N-(6-amino-5-sulfamoyl-3,4′-bipyridin-2′-yl)acetamide]
> 8.00 | CC(=O)Nc1cc(-c2cnc(N)c(S(=O)(=O)Nc3cccc(Cl)c3)c2)ccn1 [Compound I-97, N-[6-amino-5-[(3-chlorophenyl)sulamoyl]-3,4′-bipyridin-2′-yl]acetamide]
> 8.00 | COc1ncc(-c2ccnc(NC(C)=O)c2)cc1S(=O)(=O)Nc1ccc(F)cc1F [Compound I-107, N-{5-[(2,4-difluorophenyl)sulfamoyl]-6-methoxy-3,4′-bipyridin-2′-yl]acetamide]
> 8.00 | CC(=O)Nc1cc(-c2cnc3ccn(S(=O)(=O)c4ccccc4)c3c2)ccn1 [Compound I-23, N-{4-[1-(phenylsulfonyl)-1H-pyrrolo[3,2-b]pyridin-6-yl]pyridin-2-yl}acetamide]
> 8.00 | CC(=O)Nc1cc(-c2cnc(C)c(NS(=O)(=O)c3ccccc3Cl)c2)ccn1 [Compound I-109, N-(5-{[(2-chlorophenyl)sulfonyl]amino]-6-methyl-3,4′-bipyridin-2′-yl)acetamide]
7.30 to 8.00 | Cc1c(-c2ccnc(Nc3ccnc(C4CC4)n3)c2)cnc(Cl)c1NS(=O)(=O)c1ccc(F)cc1F [Compound I-296, N-{6-chloro-2′-[(2-cyclopropylpyrimidin-4-yl)amino]-4-methyl-3,4′-bipyridin-5-yl}-2,4-difluorobenzenesulfonamide]
7.30 to 8.00 | Cc1nccc(Nc2cc(-c3cncc(C(=O)N(C)C45CC(C4)C5)c3)ccn2)n1 [Compound I-234, N-(bicyclo[1.1.1]pent-1-yl)-N-methyl-2′-[(2-methylpyrimidin-4-yl)amino]-3,4′-bipyridine-5-carboxamide]
> 8.00 | CC(=O)Nc1cc(-c2cnc(C#N)c(NS(=O)(=O)c3ccc(F)cc3F)c2)ccn1 [Compound I-411, N-(6-cyano-5-{[(2,4-difluorophenyl)sulfonyl]amino}-3,4′-bipyridin-2′-yl)acetamide]
> 8.00 | CC(=O)Nc1cc(-c2cnc(Cl)c(NS(=O)(=O)N(C)C)c2)ccn1 [Compound I-372, N-{6-chloro-5-[(dimethylsulfamoyl)amino]-3,4′-bipyridin-2′-yl}acetamide]
> 8.00 | CC(=O)Nc1cc(-c2cnc(N)c(S(=O)(=O)N(C)C)c2)ccn1 [Compound I-119, N-[6-amino-5-(dimethylsulfamoyl)-3,4′-bipyridin-2′-yl]acetamide]
> 8.00 | CC(=O)Nc1cc(-c2cnc(Cl)c(N3CCCN(C)S3(=O)=O)c2)ccn1 [Compound I-467, N-[6-chloro-5-(6-methyl-1,1-dioxido-1,2,6-thiadiazinan-2-yl)-3,4′-bipyridin-2′-yl)acetamide]
> 8.00 | Cc1nc(Nc2cc(-c3cnc(C)c(NS(=O)(=O)c4ccc(F)cc4F)c3)ccn2)ccc1C#N [Compound I-289, N-{2′-[(5-cyano-6-methylpyridin-2-yl)amino]-6-methyl-3,4′-bipyridin-5-yl}-2,4-difluorobenzenesulfonamide]
